Experimental data reported in paper PMC12531871, “Indole-2-carboxamides Optimization for Antiplasmodial Activity” (ACS Bio & Med Chem Au, 2025).
In brackets after ≈: the same amount, converted by molar mass. Several values for one entry are separate records, joined by “and”; a condition that tells them apart may be missing. Equal entries are not always repeated. Entries after “also recorded” stand apart in the source; their conditions may differ. Where two headings read alike, the source gives them in different places.

How the values were obtained:
[1] = eLogD at pH 7.4, miniaturized shake flask method; type: physicochemical; conditions: for logD at 2 h: 1-octanol/PBS (1:1, v/v), pH 7.4, pH 7.4, miniaturized shake flask method
Description: eLogD at pH 7.4 was determined using a miniaturized shake flask method. A solution of a presaturated mixture of 1-octanol and phosphate-buffered saline (PBS) (1:1, v/v) and the test compound (75 μM) was incubated at 25 °C with constant shaking (850 rpm) for 2h. After incubation, the organic and aqueous phases were separated, and samples of each phase were transferred to a plate for dilution. […] The samples were quantitated using LC-MS/MS. The experiment was carried out in duplicate. Propranolol, Amitriptyline, and Midazolam were used as reference standards.

[2] = Resazurin assay for cytotoxicity in HepG2 cells; type: cell-based, human; conditions: human, HepG2 cells; HepG2 cell line, 72 h, resazurin
Description: (§1) HepG2 cells were trypsinized, counted, and distributed in a 96-well plate at a density of 30,000 cells per well (180 μL). The plate was incubated at 37 °C and 5% CO2 for 24 h. Following incubation, 20 μL of serial dilutions of the tested compounds were added to the wells, with concentrations ranging from 30 to 0.47 μM. The plate was incubated for an additional 72 h at 37 °C and 5% CO2. Untreated cells served as positive controls, while wells containing only medium were used as negative controls. Postincubation, microscopy was employed to determine the highest compound concentration for treatment results. […] Concentration–response curves were generated, and half-maximal inhibitory concentration (CC50) values were determined using nonlinear regression analysis.

[3] = test system: P. falciparum 3D7 strain (Pf3D7); assay: Antiplasmodial activity against P. falciparum 3D7 blood-stage parasites (SYBR Green, 72 h); type: cell-based, Plasmodium falciparum
[4] = Kinetic solubility at pH 7.4; type: physicochemical; conditions: phosphate-buffered saline, 25 °C, pH 7.4, aqueous buffer, kinetic from dmso stock; read-out: Kinetic solubility (Sol)
Description: Kinetic solubility assay was performed using UV–vis detection. […] The samples were filtered using a multiscreen solubility filter plate. The filtrate was diluted by 50% with MeCN. A five-point linearity curve was prepared in PBS/MeCN (1:1, v/v) at 200, 150, 75, 25, and 2.5 μM. Blank, linearity, and test samples (n = 2) were transferred to a UV-readable plate, and the plate was scanned for absorbance. Best-fit calibration curves were constructed using the calibration standards and used to determine the test sample solubility. The experiment was carried out in duplicate. Diethylstilbestrol, Haloperidol, and Diclofenac Sodium were used as reference standards.

P. falciparum Dd2 strain = assay: Antiplasmodial activity against resistant P. falciparum Dd2; type: cell-based; conditions: Plasmodium falciparum, 3D7 / DD2; resistant Dd2, in parallel with 3D7; read-out: IC50^Dd2 ± SD
P. falciparum K1 strain = assay: Antiplasmodial activity against resistant P. falciparum K1; type: cell-based; conditions: Plasmodium falciparum, 3D7 / K1; resistant K1, in parallel with 3D7; read-out: IC50^K1 ± SD
Rat hepatocyte stability = type: in vitro ADME; conditions: for R Heps (Clint): rat hepatocyte stability
Description: The reaction was terminated with the addition of ice-cold MeCN at designated time points. The samples were then centrifuged (4200 rpm) for 20 min at 20 °C, and the supernatant was half diluted in water and then analyzed using LCMS/MS. The % parent compound remaining, half-life (t 1/2), and clearance (CLint) were calculated using standard methodology. The experiment was carried out in duplicate. Diltiazem, 7-Ethoxy Coumarin, Propranolol, and Midazolam were used as reference standards.

[5] = Human liver microsome stability; type: in vitro ADME; conditions: human microsomal intrinsic clearance; for microsomal CLint at 1 μM: human, pooled human liver microsomes, read-out: hMics, human microsome Clint
Description: A solution of the test compounds in phosphate buffer solution (1 μM) was incubated in pooled human or mouse liver microsomes (0.5 mg/mL) for 0, 5, 20, 30, 45, and 60 min at 37 °C in the presence and absence of an NADPH regeneration system (NRS). The tests were conducted by […], India. The reaction was terminated with the addition of ice-cold acetonitrile, containing a […] standard, at designated time points. The sample was centrifuged (4200g) for 20 min at 20 °C and the supernatant was diluted by half in water and then analyzed by LC-MS/MS. The % parent compound remaining, half-life (t 1/2) and clearance (CLint) were calculated using standard methodology. The experiment was carried out in duplicate. Verapamil, diltiazem, phenacetin, and imipramine were used as reference standards.

HepG2 cells = assay: Resazurin assay for cytotoxicity in HepG2 cells; type: cell-based, human; conditions: Homo sapiens, HepG2
Description: as §1

P. falciparum = assay: Parasite reduction ratio (PRR) assay, in vitro rate of kill; type: cell-based, Plasmodium falciparum
Excerpt: This library was designed to maximize chemical diversity and novelty of compounds with physicochemical properties consistent with potential for further development.

[6] = test system: P. falciparum NF54 strain; assay: Antiplasmodial activity against P. falciparum NF54 (SYBR Green, 72 h); type: cell-based, Plasmodium falciparum; conditions: read-out: NF54-IC50
[7] = test system: P. falciparum (3D7 strain) digestive vacuole; assay: Digestive vacuole homeostasis, acridine orange fluorescence; type: cell-based, Plasmodium falciparum; conditions: 10 μM, 3 min treatment, isolated parasites
Description: The sample was incubated for 40 min at 37 °C. […] Fluorescence was measured in a Hitachi F-7000 fluorimeter (Tokyo, Japan) by continuous measurement of the fluorescence (λex = 488 nm; λem = 560 nm) at 37 °C. Experiments were performed in triplicate.

[8] = test system: P. falciparum Dd2 (chloroquine resistance); assay: Effect of verapamil on inhibitory activity in P. falciparum Dd2; type: cell-based; conditions: Plasmodium falciparum
[9] = test system: P. falciparum 3D7 (chloroquine-sensitive); assay: Effect of verapamil on inhibitory activity in P. falciparum 3D7; type: cell-based; conditions: Plasmodium falciparum
[10] = test system: P. falciparum field isolates from Brazil; assay: Ex vivo drug susceptibility of P. falciparum field isolates; type: cell-based, Plasmodium falciparum; conditions: Plasmodium falciparum; for IC50: read-out: median IC50 (range), P. falciparum (7); for EC50: read-out: median EC50 against P. falciparum isolates
[11] = test system: P. vivax field isolates from Brazil; assay: Ex vivo drug susceptibility of P. vivax field isolates; type: cell-based; conditions: Plasmodium vivax; for IC50: read-out: median IC50 (range), P. vivax (9); for EC50: read-out: median EC50 against P. vivax field isolates
P. falciparum 3D7 clone = assay: Ex vivo schizont maturation assay, 3D7 laboratory strain control; type: cell-based; conditions: Plasmodium falciparum
[12] = test system: synchronized P. falciparum parasites (3D7 strain); assay: P. falciparum asexual blood stage-specificity assay (8 h exposures); type: cell-based, Plasmodium falciparum
[13] = Plasmodium falciparum, 3D7, 72 h, 3D7 strain, 72 h, SYBR Green, read-out: Pf3D7-IC50
[14] = Plasmodium falciparum, 3D7 / DD2, sensitive 3D7, in parallel with K1 and Dd2, read-out: IC50^3D7 ± SD
[15] = 3D7 strain, 72 h, SYBR Green, read-out: Pf3D7-IC50

| Compound | logD at 2 h [1] | IC50 [3, 13] [µM] | IC50 [3, 14] [µM] | solubility kinetic at 2 h [4] [µM] | IC50 (P. falciparum Dd2 strain) [µM] | IC50 (P. falciparum K1 strain) [µM] | R Heps (Clint) (Rat hepatocyte stability) [μL/min/10^6] | microsomal CLint at 1 μM [5] [µL/min/mg] | CC50 at 72 h [2] [µM] | further results |
| --- | --- | --- | --- | --- | --- | --- | --- | --- | --- | --- |
| O=C(c1cc2cc(C(F)(F)F)ccc2[nH]1)N(Cc1cccnc1)C1CCNCC1 [Compound 6y, N-(Piperidin-4-yl)-N-(pyridin-3-ylmethyl)-5-(trifluoromethyl)-1H-indole-2-carboxamide] | 1.4 | 0.22 ± 0.09 | 0.3 ± 0.1 | > 200 | 1.6 ± 0.3 | 2.1 ± 0.2 | 4 | 17 | > 30 |  |
| C[C@H]1[C@H](OC(=O)CCC(=O)O)O[C@@H]2O[C@@]3(C)CC[C@H]4[C@H](C)CC[C@@H]1[C@@]24OO3 [artesunate] |  |  |  |  |  |  |  |  |  | IC50 ([10]; 7 clinical isolates, ex vivo): 0.0006 µM; EC50 ([10]; ex vivo): 0.0006 µM; IC50 ([11]; 9 clinical isolates, ex vivo): 0.001 µM; EC50 ([11]; ex vivo): 0.001 µM; IC50 (P. falciparum 3D7 clone; ex vivo assay conditions, 3D7 control, read-out: P. falciparum 3D7 IC50): 0.008 µM |
| CCN(CC)CCCC(C)Nc1ccnc2cc(Cl)ccc12 (stereo not drawn) [chloroquine, reference compound] |  |  |  |  |  |  |  |  |  | EC50 [10]: 1.2 µM; IC50 [10]: 1.2 µM; EC50 [11]: 0.295 µM; IC50 [11]: 0.295 µM; IC50 ([8]; DD2, read-out: IC50^Dd2 (without VP)): 0.655 µM; timing of peak activity (lowest IC50^8h) in asexual blood stages [12]: peak activity at ring and trophozoite stages; IC50 ([9]; 3D7, read-out: IC50^3D7 (without VP)): 0.0398 µM; IC50 ([9]; 3D7, read-out: IC50 in 3D7 strain): 0.04 to 0.05 µM; IC50 (P. falciparum 3D7 clone; 3D7, read-out: P. falciparum 3D7 IC50): 0.012 µM |

Second part, led by results:

| logD at 2 h [1] | IC50 [3, 13] [µM] | IC50 [3, 14] [µM] | solubility kinetic at 2 h [4] [µM] | IC50 (P. falciparum Dd2 strain) [µM] | IC50 (P. falciparum K1 strain) [µM] | R Heps (Clint) (Rat hepatocyte stability) [μL/min/10^6] | microsomal CLint at 1 μM [5] [µL/min/mg] | Compound | CC50 at 72 h [2] [µM] | further results |
| --- | --- | --- | --- | --- | --- | --- | --- | --- | --- | --- |
| 2.3 | 0.37 ± 0.04 | 0.3 ± 0.1 | > 200 | 0.7 ± 0.2 | 0.5 ± 0.3 | 50 | 36 | CN1CCC(N(Cc2cccnc2)C(=O)c2cc3cc(Cl)ccc3[nH]2)CC1 [Compound 5t, 5-Chloro-N-(1-methylpiperidin-4-yl)-N-(pyridin-3-ylmethyl)-1H-indole-2-carboxamide] | > 30 |  |
| 0.62 | 1.39 |  | 193 (≈ 71.2 µg/mL) | 9.1 ± 0.1 | 6.4 ± 0.1 | 15 | 4.6 | O=C(c1cc2cc(Cl)ccc2[nH]1)N(Cc1cccnc1)CC1CCNC1 (stereo not drawn) [Compound 6a, 5-Chloro-N-(pyridin-3-ylmethyl)-N-(pyrrolidin-3-ylmethyl)-1H-indole-2-carboxamide] | > 30 | LogD ([1]; pH 7.4, miniaturized shake flask method): 0.6; IC50 (HepG2 cells): > 20 µM; IC50 [3, 15]: 1.4 µM and 1 µM; Parasite Reduction Rate (PRR), rate of kill (P. falciparum): as fast as that of CQ; also recorded: Fast-acting inhibitor; IC50 ([6]; NF54 strain): 0.8 ± 0.4 µM; IC50 ([6]; Plasmodium falciparum, NF54, NF54 strain): 0.84 µM; hepatocyte CLint at 1 μM (Rat hepatocyte stability; pooled rat hepatocytes, rat hepatocyte intrinsic clearance, read-out: Rat hep Clint): 14.6 µL/min/1e6 cells; hMics, human microsome Clint [5]: 5 µL/min/mg |
| -0.4 | > 10 |  | > 1000 |  |  | 4 | 7 | COc1ccc2[nH]c(C(=O)N(Cc3cccnc3)CC3CCNC3)cc2c1 (stereo not drawn) [Compound 6d, 5-Methoxy-N-(3-pyridylmethyl)-N-(pyrrolidin-3-ylmethyl)-1H-indole-2-carboxamide] |  | effect on digestive vacuole H+ homeostasis (acridine orange fluorescence) [7]: strong interaction |
| 1 | ~0.3 | 0.4 ± 0.3 | 196 | 4.7 ± 0.8 | 5.2 ± 0.2 | 2 | 3 | Cl.O=C(c1cc2cc(Cl)ccc2[nH]1)N(Cc1cccnc1)C1CCNCC1 [Compound 6x, 5-Chloro-N-(piperidin-4-yl)-N-(pyridin-3-ylmethyl)-1H-indole-2-carboxamide hydrochloride] | > 30 | IC50 [3, 15]: 0.33 ± 0.08 µM; IC50 ([8]; read-out: IC50^Dd2 (10 μM VP), Dd2, presence of 10 μM verapamil): 0.56 µM; IC50 ([8]; Dd2, absence of verapamil, read-out: IC50^Dd2 (without VP)): 2.94 µM; IC50 ([9]; 3D7, verapamil experiment, read-out: IC50 in 3D7 strain): ~0.15 µM; IC50 ([9]; read-out: IC50^3D7 (10 μM VP), 3D7, presence of 10 μM verapamil): 0.214 µM; IC50 ([9]; 3D7, absence of verapamil, read-out: IC50^3D7 (without VP)): 0.148 µM |
